Measured values from patent US20150342847A1, “NOVEL DERIVATIVES OF SINAPINIC ACID AND THE COSMETIC OR PHARMACEUTICAL USES THEREOF” (BASF Beauty Care Solutions France SAS, priority 2012, published 2015).

Experiments:
[1] = system: keratinocytes from the A431 line; assay: Antiinflammatory activity: release of E2 prostaglandins by UVB-irradiated keratinocytes (ELISA); format: cell-based
Protocol: Study of the antiinflammatory activity of the hydroxytyrosol dihydrosinapate of the invention of formula (IIa), by measurement of the inhibition of release of E2 prostaglandins by keratinocytes under the effect of UVB.
The keratinocytes from the A431 line are cultured in an appropriate medium at 37° C. for 72 hours under 5% CO2. The culture medium is then withdrawn and replaced with the medium containing the products under test, and also the positive and negative controls. The cells are subsequently irradiated with UV B at 30 mJ/cm2. The cells are incubated for an extra 24 hours at 37° C. under 5% CO2. The cell supernatants are subsequently recovered, and the E2 prostaglandins (PGE2) released are quantified by an ELISA assay.
An amount of 100 μL of each sample, control or PGE2 standard is transferred to the wells of a 96-well plate, which are coated with antibodies directed against rat immunoglobulin G (IgG). Then an amount of 25 μL of PGE2-peroxidase conjugate is added to each well, followed by an amount of 25 μL of anti-PGE2 monoclonal antibody. The plate is incubated at 4° C. overnight. The wells are then rinsed and an amount of 100 μL of peroxidase substrate is added. After 15 minutes of incubation at ambient temperature, the optical density is read off at 450 nm. The amount of prostaglandin E2 released after irradiation is deduced from a commercial PGE2 standard range from 0 to 400 pg/mL of PGE2.
The negative control, represented by the cells which were not treated with samples and which underwent irradiation by UV B, gave rise to 100% release of PGE2. The positive experimental control is aspirin, which at 0.03% gave rise to 5%+/−2% release of PGE2.

[2] = target: T1, human tyrosinase (Homo sapiens, UniProt P14679); assay: Anti-human tyrosinase activity in normal human melanocytes (MBTH/L-Dopa, OD490); format: cell-based; conditions: normal human melanocytes, read-out: % inhibition of activity of tyrosinase +/− standard deviation
T1 construct: endogenous in cells; host or cells: normal human melanocytes obtained from abdominal plasty
T1 sequence (P14679 19-529): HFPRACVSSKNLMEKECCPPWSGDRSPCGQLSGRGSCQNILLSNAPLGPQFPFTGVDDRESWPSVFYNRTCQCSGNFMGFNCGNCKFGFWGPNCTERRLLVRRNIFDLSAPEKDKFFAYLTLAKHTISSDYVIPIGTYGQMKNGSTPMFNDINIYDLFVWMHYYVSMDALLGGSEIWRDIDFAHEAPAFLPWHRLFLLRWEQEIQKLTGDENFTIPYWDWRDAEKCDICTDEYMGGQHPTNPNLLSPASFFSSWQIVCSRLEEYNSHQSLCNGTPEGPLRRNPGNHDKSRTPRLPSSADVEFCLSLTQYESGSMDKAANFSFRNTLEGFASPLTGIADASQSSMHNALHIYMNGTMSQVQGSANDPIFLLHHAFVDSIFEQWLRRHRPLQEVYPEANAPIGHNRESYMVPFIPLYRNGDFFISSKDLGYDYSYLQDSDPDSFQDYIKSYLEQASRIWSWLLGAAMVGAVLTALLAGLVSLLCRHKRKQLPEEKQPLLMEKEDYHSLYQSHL
Protocol: Study of the inhibition of tyrosinase by the hydroxytyrosol dihydrosinapate of the invention of formula (IIa), in comparison with the prior-art ferulic acid derivative, by quantitative analysis of the human tyrosinase activity of melanocytes cultured as a monolayer following application of the compound under test. Normal human melanocytes (obtained from abdominal plasty) are seeded in a 24-well plate at 80000 cells per well. They are cultured until confluence, and the compounds under test are applied in the culture media for 24 hours. After 24 hours, the media are removed and the melanocytes are detached by mechanical action. Extraction is carried out by thermal shock and then the supernatants are recovered and incubated with MBTH (methyl benzothiazolinone-hydrazone) (Sigma) and L-Dopa (Sigma). The optical density (OD) at 490 nm (OD490) is measured after 30 minutes of incubation, and the inhibition of tyrosinase is calculated according to the following formula: % inhibition=100−[100×(OD490 sample/level of proteins in sample)/(OD490 negative control/level of proteins in negative control)] The OD490 is therefore related to the level of protein, which is the measurement in each culture well. […] The results are presented as % inhibition of activity of tyrosinase, in Table 2.

[3] = TBARS test, lipid peroxidation of UVB-irradiated liposomal suspension; conditions: for % inhibition of lipid peroxidation: UVB 2 hours
Protocol: Study of the radical scavenger activity of the hydroxytyrosol dihydrosinapate of the invention of formula (IIa) and of the prior-art ferulic acid derivative by the TBARS test.
Two identical 96-well plates are produced according to a defined plate plan. 50 μL of a sample mixture prepared by diluting a solution of a test compound or of a negative control (vehicle medium without test compound) or of a positive control (D-L-alpha-tocopherol) to 1/10 in a liposomal suspension are distributed per well, in quadruplicate. One of the two plates is irradiated with UVB for 2 hours. The other plate, serving as a control, is incubated in the absence of light and at ambient temperature for 2 hours.
At the end of irradiation, an amount of 100 μL of 20% trichloroacetic acid solution was added per well, followed by an amount of 34 μL of 1% thiobarbituric acid solution. The plates are then incubated at 105° C. for 25 minutes.
The contents of each well are centrifuged at 5700 rpm for 5 minutes, and then an amount of 100 μL of supernatant was deposited in new plates, according to the same plan, and the absorbance was read off at 530 nm.
The positive experimental control was D-L-alpha-tocopherol, at a concentration of 1%, for which a percentage inhibition of 80% was obtained.

[4] = system: melanocytes of murine line B16; assay: Inhibition of melanin production in B16 melanocytes stimulated with an α-MSH derivative; format: cell-based; conditions: Mus musculus, B16 cells
Protocol: Determination of the percentage inhibition of melanin production by the hydroxytyrosol dihydrosinapate of the invention of formula (IIa) or the ferulic acid derivative of the prior art, by quantitative analysis of the total melanin synthesized by melanocytes of murine line B16 following application of the compound under test.
Melanocytes (B16 cells) are cultured for 24 hours in a 96-well plate in an appropriate medium. […] After 72 hours of incubation, the culture medium is withdrawn, and total melanin is quantified by measuring the absorbance at 405 nm against a standard range of synthetic melanin from 0.78 to 100 μg/mL.
The results are expressed as percentage inhibition of melanin production relative to the negative control, and are presented in Table 1.
The inhibitory activity on melanin production of the product tested is calculated as a percentage according to the following formula:
% inhibition=[(mean stimulated control−mean basal control)−(sample value−mean basal control)]/(mean stimulated control−mean basal control)×100
where: • Mean stimulated control: mean of the values obtained with a medium supplemented with an alpha-MSH derivative • Sample value: value obtained with the compound under test • Mean basal control: Mean of the values obtained with a medium not supplemented with an alpha-MSH derivative

[5] = DPPH radical scavenger test (acellular); conditions: 30 minutes
From the text: Study of the radical scavenger activity of the hydroxytyrosol dihydrosinapate of the invention of formula (IIa) and of the prior-art ferulic acid derivative in an acellular in vitro model, using DPPH.
1,1-Diphenyl-2-picrylhydrazyl, owing to its paramagnetic structure, is able to accept an electron or a hydrogen radical in order to become a stable diamagnetic molecule.
The addition of a compound which provides electrons gives rise to decoloring of the 1,1-diphenyl-2-picrylhydrazyl in a manner proportional to the number of electrons accepted by the radical, and this decoloration can be monitored by measuring the absorbance at 530 nm (OD530).
[…] At the end of the incubation, the radical scavenger activity of the compound under test is evaluated by measuring the absorbance of the solution at 530 nm.
The results are presented as % inhibition of the DPPH radical, in Table 3a).
The radical scavenger activity of the test product is calculated as a percentage, according to the following formula:
100−((OD530 in the presence of the compound under test/OD530 in the absence of compound)×100)

[6] = system: keratinocytes; assay: Cytotoxicity, MTT cell viability on keratinocytes; format: cell-based; conditions: 0.25%, positive cytotoxicity control
Protocol: (§1) Study of cell viability following application of the hydroxytyrosol dihydrosinapate of the invention of formula (IIa) to keratinocytes or melanocytes.
(§2) The cells (keratinocytes or melanocytes) were cultured in a 96-well plate at 37° C. under 5% CO2 in an appropriate medium until confluence. The medium was withdrawn and then an amount of 200 μL of a 0.5 mg/mL MTT solution was added. The plates were then incubated at 37° C. for 3 hours, after which the MTT solution was withdrawn from each well and replaced with DMSO. The plates were agitated for 15 minutes, and the optical density was measured at 550 nm.
(§3) The negative cytotoxicity control is PBS. The positive cytotoxicity control is 0.25% SDS. 0.1% DMSO was used as control.

[7] = system: melanocytes; assay: Cytotoxicity, MTT cell viability on melanocytes; format: cell-based; conditions: 0.25%, positive cytotoxicity control
Protocol: as §1, §2, §3

Structure (SMILES): COc1cc(CCC(=O)OCCc2ccc(O)c(O)c2)cc(OC)c1O
- inhibition of prostaglandin E2 release (in words) ([1]; keratinocytes, 30 μM, after irradiation with UVB): greatly inhibited prostaglandin E2 release

Structure (SMILES): OC[C@H]1O[C@@H](Oc2ccc(O)cc2)[C@H](O)[C@@H](O)[C@@H]1O [Arbutin, arbutin, reference compound]
- inhibition at 1000 µM ([2]; 1 mM): 65%

Structure (SMILES): Cc1c(C)c2c(c(C)c1O)CCC(C)(CCCC(C)CCCC(C)CCCC(C)C)O2 [D-L-alpha-tocopherol]
- percentage inhibition (lipid peroxidation) ([3]; positive control at a concentration of 1%): 80%

Structure (SMILES): O=c1cc(CO)occ1O [Kojic acid, kojic acid]
- inhibition at 25 µg/mL ([4]; positive control at 0.025 mg/mL, read-out: percentage inhibition of melanin production): 50%

Structure (SMILES): COc1cc(/C=C/C(=O)NCCc2ccc(O)c(O)c2)ccc1O [Prior-art ferulic acid derivative, N-trans-feruloyldopamine, reference compound]
- inhibition at 10 µM ([4]; 10 μM, 72 hours, read-out: % inhibition of melanin +/− standard deviation): 37%
- inhibition at 30 µM ([4]; 30 μM, 72 hours, read-out: % inhibition of melanin +/− standard deviation): 76%
- inhibition at 50 µM ([4]; 50 μM, 72 hours, read-out: % inhibition of melanin +/− standard deviation): 88%
- inhibition at 1 µM ([2]; 1 μM, 24 hours): -9.22%
- inhibition at 10 µM ([2]; 10 μM, 24 hours): 18.8%
- inhibition at 100 µM ([2]; 100 μM, 24 hours): 67.8%
- % inhibition of the DPPH radical ([5]; 1 μM): 6.02 +/− 0.758%
- % inhibition of the DPPH radical ([5]; 5 μM): 35.02 +/− 1.209%
- % inhibition of the DPPH radical ([5]; 10 μM): 61.85 +/− 1.35%
- % inhibition of the DPPH radical ([5]; 30 μM): 89.91 +/− 0.66%
- % inhibition of the DPPH radical ([5]; 50 μM): 89.91 +/− 0.59%
- % inhibition of the DPPH radical ([5]; 100 μM): 89.91 +/− 0.66%
- % inhibition of the DPPH radical ([5]; 1000 μM): 90.99 +/− 0.46%
- % inhibition of lipid peroxidation ([3]; 1 μM after dilution to 1/10th in the liposomal suspension): −16.95%
- % inhibition of lipid peroxidation ([3]; 5 μM after dilution to 1/10th in the liposomal suspension): 6.69%
- % inhibition of lipid peroxidation ([3]; 30 μM after dilution to 1/10th in the liposomal suspension): 11.77%
- % inhibition of lipid peroxidation ([3]; 50 μM after dilution to 1/10th in the liposomal suspension): 31.74%
- % inhibition of lipid peroxidation ([3]; 100 μM after dilution to 1/10th in the liposomal suspension): 64.04%
- % inhibition of lipid peroxidation ([3]; 1000 μM after dilution to 1/10th in the liposomal suspension): 94.72%

Structure (SMILES): CCCCCCCCCCCCOS(=O)(=O)[O-].[Na+] [SDS, reference compound]
- Percentage cell viability, Mean [6]: 1.3%
- Percentage cell viability, Mean [7]: 0.8%

Structure (SMILES): CC(=O)Oc1ccccc1C(=O)O [aspirin, reference compound]
- % release of PGE2 after irradiation ([1]; A431 keratinocytes, 0.03%, UV B 30 mJ/cm2, positive control): 5%+/−2%
